Experimental data published in article PMC9298352, “Design, Synthesis and Structural Analysis of Glucocerebrosidase Imaging Agents” (Chemistry (Weinheim an Der Bergstrasse, Germany), 2021).
pIC50: −log10 of the molar value.

What was measured:
rhGBA = molecular target: T1, rhGBA (Homo sapiens, UniProt P04062); experiment: Time-dependent labelling of rhGBA with galacto-ABP 7 and gluco-ABP 8 (SDS-PAGE, Cy5 fluorescence); assay type: biochemical; settings: rhGBA 700 nM, ABP 150 nM
T1 construct: made in house; host or cells: insect-baculovirus expression vector system (BEVS)
T1 sequence (P04062 40-536): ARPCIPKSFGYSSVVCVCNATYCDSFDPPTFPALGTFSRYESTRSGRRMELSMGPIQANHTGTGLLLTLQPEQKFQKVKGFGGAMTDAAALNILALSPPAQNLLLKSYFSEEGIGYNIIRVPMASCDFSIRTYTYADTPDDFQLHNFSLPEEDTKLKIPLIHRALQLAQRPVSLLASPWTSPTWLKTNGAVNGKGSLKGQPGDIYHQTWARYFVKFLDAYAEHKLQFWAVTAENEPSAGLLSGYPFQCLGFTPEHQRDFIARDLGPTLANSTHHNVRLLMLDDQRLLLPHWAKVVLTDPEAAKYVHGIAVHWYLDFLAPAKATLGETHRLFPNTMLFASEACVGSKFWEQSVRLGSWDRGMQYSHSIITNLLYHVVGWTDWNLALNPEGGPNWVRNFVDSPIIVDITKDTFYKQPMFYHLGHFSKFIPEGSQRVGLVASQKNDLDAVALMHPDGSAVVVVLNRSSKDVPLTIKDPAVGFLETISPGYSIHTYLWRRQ
Experimental: To rapidly investigate for cross‐reactivity with galacto‐configured cyclophellitol aziridines, time‐dependent labelling assays of rhGBA with galacto‐configured Cy5‐tagged aziridine ABP 7 were performed (Figure 3).
Figure 3 Time dependent labelling of rhGBA (700 nM) by Cy5‐tagged galacto‐ABP 7 (150 nM) after 2, 5, 10, 30 and 60 mins showing that labelling reaches saturation at 30 mins. In comparison, labelling by Cy5‐tagged gluco‐ABP 8 (150 nM) reaches saturation in 2mins. […] ABP labelled rhGBA (60 kDa) visualized by Cy5 fluorescent readout.
rhGBA produced in BEVS[58] was prepared at 700 nM in 150 mM McIlvaine buffer pH 5.2 (containing 0.1 % (v/v) Triton X‐100 and 0.2 % (w/v) sodium taurocholate) and ABP 7 or ABP 8 were added to 150 nM. The reactions were incubated at 37 °C and aliquots were taken at 2, 5, 10, 30 and 60 mins. The aliquots were immediately denatured with Laemmli (x3) sample buffer by heating at 95 °C for 5 minutes. The samples were resolved by electrophoresis in 10 % SDS‐PAGE gels, running at 200 V for ∼50 minutes. Wet slab gels were scanned on fluorescence using an AmershamTyphoon 5 Imager (GE Healthcare) with λEX 635 nm; λEM >665 nm.

GBA = settings: read-out: apparent IC50 for GBA; cited from earlier work

## C[N+]1=C(C=CC=CC=C2N(CCCCCC(=O)NCc3ccc(C4=C5C(C=NN4)C4CC(C(=O)NCCCCCCN6C7C(O)C(O)C(O)C(CO)C76)C5C4)cc3)c3ccccc3C2(C)C)C(C)(C)c2ccccc21 (stereo not shown) [ABP 7]
rhGBA
  time to saturation of rhGBA labelling (Figure 3 legend): 30 min
rhGBA; pH 5.2, 37 °C
  time to saturation of rhGBA labelling: ≤ 30 min
  time within which rhGBA is labelled: ≤ 2 min

## OC[C@@H]1[C@@H](O)[C@H](O)[C@@H](O)[C@@H]2N[C@H]12 [compound 2, cyclophellitol aziridine]
GBA
  pIC50: 6.30
